Data taken from paper PMC12365235, “Molecular mechanisms of thiazide-like diuretics-mediated inhibition of the human Na-Cl cotransporter” (Nature Communications, 2025).

Experiments:
hNCC(V231M) = experiment: 125I- uptake assay, hNCC(V231M) variant; type: cell-based, human; settings: V231M polymorphism
Protocol: (§1) HEK293S cell lines, cultured in 293 Freestyle medium (Life Technologies; plus 10% fetal bovine serum), stably expressing hNCC and its variants were generated following published protocols. Cells were transfected using Lipofectamine 3000 (Invitrogen) with a pSBbi-RP-based plasmid containing hNCC or its variants and the SB100X vector. Puromycin (2 μg/mL; Gemini Bio-Products) was used for selection of stable cell lines.
(§2) To prepare for the uptake experiment, cells were plated at 0.5 × 10^6 cells/well in 24-well plates one day in advance. To activate NCC, cells were treated with a chloride-free hypotonic solution composed of 67.5 mM sodium-, 2.5 mM potassium-, 0.25 mM magnesium-, and 0.25 mM calcium-gluconate, as well as 7.5 mM HEPES pH 7.4 (buffered using Tris) at 37 °C for 10 min[72]. After the activation step, the experiments were carried out at room temperature. Ten minutes before the start of ^125I^− uptake, 70 μM Bumetanide (Thermo Scientific Chemicals) and 100 μM 4,4′-diisothiocyanatostilbene-2,2′-disulfonic acid (DIDS; Sigma) were added to suppress background iodide uptake activity. Indicated thiazide diuretics were also added to the indicated concentrations 10 min before the start of ^125I^− uptake. The original buffer was switched to an uptake buffer composed of 135 mM Na-gluconate, 5 mM K-gluconate, 1 mM Mg-gluconate, 1 mM Ca-gluconate, 70 μM bumetanide, 100 μM DIDS, 1 mM NaI, 0.25 μCi/ml Na^125I (American Radiolabeled Chemicals, Inc.), and 15 mM HEPES pH 7.4 (buffered using Tris), in the presence or absence of thiazide diuretics to initiate ^125I^− uptake. The ^125I^− uptake process lasted 1 h and was stopped by two rapid washes using ice-cold 110 mM MgCl2. Cells lysed using 1% sodium dodecyl sulfate (SDS) were analyzed by scintillation counting.
(§3) To calculate the fold change of the half-maximal inhibitory concentration (IC50) between hNCC(WT) and different hNCC variants, individual dose-response curves were normalized first using the smallest mean and the value of the lowest concentration as 0% and 100%, respectively. The normalized data were then fitted using the “EC50 shift” nonlinear regression in GraphPad Prism 10 with the shared EC50Control assigned to be the IC50 of hNCC(WT). The following constraints were used in the EC50 shift analysis. The EC50Control was set to be shared across all curves under analysis and constrained to be greater than 0. The EC50Ratio was constrained to be greater than 0. The bottom, top, and HillSlope were constrained to be 0, 100, and −1, respectively. For Fig. 1f, g and Supplementary Fig. 2d, GraphPad Prism 10 was used to perform curve fitting and IC50 calculation for normalized data using y = 100/(1 + (x/IC50)).

hNCC(G230A) = target: T1, hNCC(G230A) (Homo sapiens, UniProt P55017, G230A); experiment: 125I- uptake assay, hNCC(G230A) variant; type: cell-based; settings: for fold less sensitive than hNCC(WT) / IC50: G230A substitution; for IC50: iodide uptake
T1 construct: expressed in transfected cells
T1 sequence (P55017 1-1021 G230A): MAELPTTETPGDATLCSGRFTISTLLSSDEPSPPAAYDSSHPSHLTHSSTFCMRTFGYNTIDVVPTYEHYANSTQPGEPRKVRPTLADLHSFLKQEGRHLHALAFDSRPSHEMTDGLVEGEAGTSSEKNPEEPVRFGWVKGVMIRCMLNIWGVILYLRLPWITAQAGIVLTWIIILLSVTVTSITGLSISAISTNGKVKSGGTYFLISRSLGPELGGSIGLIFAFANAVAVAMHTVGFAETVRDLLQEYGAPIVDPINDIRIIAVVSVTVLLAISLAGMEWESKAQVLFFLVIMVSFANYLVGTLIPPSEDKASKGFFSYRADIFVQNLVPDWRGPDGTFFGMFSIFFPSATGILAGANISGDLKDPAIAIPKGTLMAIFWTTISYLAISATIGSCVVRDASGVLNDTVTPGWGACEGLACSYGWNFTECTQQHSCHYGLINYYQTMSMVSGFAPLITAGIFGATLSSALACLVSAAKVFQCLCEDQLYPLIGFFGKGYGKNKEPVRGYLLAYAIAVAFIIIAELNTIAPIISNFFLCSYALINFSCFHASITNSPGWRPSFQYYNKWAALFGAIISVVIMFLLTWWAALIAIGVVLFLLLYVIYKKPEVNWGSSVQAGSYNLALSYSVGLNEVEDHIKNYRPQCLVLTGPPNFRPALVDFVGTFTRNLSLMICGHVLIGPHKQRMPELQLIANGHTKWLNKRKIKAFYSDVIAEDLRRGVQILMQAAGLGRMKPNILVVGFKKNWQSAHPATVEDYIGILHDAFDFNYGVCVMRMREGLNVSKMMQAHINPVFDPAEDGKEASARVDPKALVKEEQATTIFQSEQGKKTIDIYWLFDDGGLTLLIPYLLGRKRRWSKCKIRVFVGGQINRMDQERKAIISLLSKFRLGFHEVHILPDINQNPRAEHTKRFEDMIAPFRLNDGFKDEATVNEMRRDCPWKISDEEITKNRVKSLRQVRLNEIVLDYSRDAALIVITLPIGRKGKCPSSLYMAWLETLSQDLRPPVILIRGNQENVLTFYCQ
Protocol: as §1, §2, §3

| Compound | sensitivity relative to hNCC(WT) (fold lower) (hNCC(V231M)) | fold less sensitive than hNCC(WT) (hNCC(G230A)) | IC50 (hNCC(G230A)) | inhibition of transport activity (hNCC(G230A); 100 μM polythiazide, G230A) |
| --- | --- | --- | --- | --- |
| NS(=O)(=O)c1cc(C2(O)NC(=O)c3ccccc32)ccc1Cl (stereo not shown) [chlorthalidone] | 3 fold | approximately 40 fold | 930 nM |  |
| CC1Cc2ccccc2N1NC(=O)c1ccc(Cl)c(S(N)(=O)=O)c1 (stereo not shown) [indapamide] | 2 fold | ~ 2 fold | 29 nM |  |
| CN1C(CSCC(F)(F)F)Nc2cc(Cl)c(S(N)(=O)=O)cc2S1(=O)=O (stereo not shown) [polythiazide] | nearly as sensitive as the wild-type | ~ 2 fold | 1.4 nM | fully inhibited |
